In patent US20240415819A1, “MACROCYCLIC COMPOUNDS AS PROTEASOME SUBUNIT BETA TYPE-5 INHIBITORS” (Lead Discovery Center GmbH, priority 2021, published 2024) one finds IC50 data, which are given here for ten molecules.

For test [1], the target named is T1, β5 subunit of the human constitutive proteasome (CPS) (Homo sapiens, UniProt P28074).
T1 construct: purchased Boston Biochem E-360
Nature of the test: β5 inhibition assay, human constitutive proteasome (Suc-LLVY-AMC). The following applies: IC50 class, Suc-LLVY-AMC substrate. The class given is biochemical. How it is done:
The enzymatic activity of the β5 subunit of the human constitutive proteasome (CPS) is analyzed. In another assay, which differs from the assay of the human constitutive proteasome only in using the human immunoproteasome (IPS) the enzymatic activity of the β5 subunit of the human immunoproteasome (IPS) is analyzed. […] Inhibition is indicated as IC50 [nM] (“-”=not measured).

The test system of test [2] is A549 (human lung carcinoma cell line). Nature of the test: Glo assay of A549 cells (Table 3; ProteasomeGlo plating scheme). In kind it is cell-based. Particulars: Homo sapiens; A549 cells; read-out: PGLo A549. The method in brief:
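IC50 values (nM) come from a cell-based chymotrypsin-like Proteasome-Glo luminescence assay. Compound exposure ran 105 min at 37° C.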

Another test concerns hPMBC. Nature of the test: Chymotrypsin-like ProteasomeGlo assay in hPBMC. In kind it is cell-based. Particulars: Homo sapiens; read-out: Pglo hPBMC. The method in brief:
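IC50 derived from luminescent chymotrypsin-like proteasome activity (Suc-LLVY-Glo substrate plus luciferin detection reagent). Measured after 105 min compound exposure at 37 °C, 5% CO2. Cells were human B cells purified from buffy-coat PBMC.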

As for `Cc1ccc2cc1CNC(=O)[C@H](CCc1ccccc1)NC(=O)[C@@H](NC(=O)Cc1nnc(N)[nH]1)CC(=O)N1CCCC(CCO2)C1` (stereo partly drawn) [Compound 340, 2-(5-amino-1H-1,2,4-triazol-3-yl)-N-((9S,12S)-5^4-methyl-8,11,14-trioxo-9-phenethyl-4-oxa-7,10-diaza-1(3,1)-piperidina-5(1,3)-benzenacyclotetradecaphane-12-yl)acetamide], the IC50 (in test [1]; in test [2]; in the test with hPMBC) was under 100 nM in each case.

As to `Cc1ccc2cc1CNC(=O)C(CCc1ccncc1)NC(=O)[C@@H](NC(=O)C1(c3ccc(N)cc3)CC1)CC(=O)N1CCCC(CCO2)C1` (stereo partly drawn) [Compound 343, 1-(4-aminophenyl)-N-((12S)-5^4-methyl-8,11,14-trioxo-9-(2-(pyridin-4-yl)ethyl)-4-oxa-7,10-diaza-1(3,1)-piperidina-5(1,3)-benzenacyclotetradecaphane-12-yl)cyclopropane-1-carboxamide], the IC50 (in test [1]; in test [2]; in the test on hPMBC) was under 100 nM throughout.

Take `Cc1ccc2cc1CNC(=O)C(CCc1ccc(C3(C)COC3)cc1)NC(=O)[C@@H](NC(=O)OCc1ccccc1)CC(=O)N1CCCC(CCO2)C1` (stereo partly drawn) [Compound 510, benzyl ((12S)-5^4-methyl-9-(4-(3-methyloxetan-3-yl)phenethyl)-8,11,14-trioxo-4-oxa-7,10-diaza-1(3,1)-piperidina-5(1,3)-benzenacyclotetradecaphane-12-yl)carbamate]: the IC50 (in test [1]; in test [2]; in the test on hPMBC) was under 100 nM throughout.

Regarding `CC(=O)N[C@H]1CC(=O)N2CCCC(CCOc3ccc(C)c(c3)CNC(=O)C(Cc3ccccc3)NC1=O)C2` (stereo partly drawn) [Compound 558, N-((12S)-9-benzyl-5^4-methyl-8,11,14-trioxo-4-oxa-7,10-diaza-1(3,1)-piperidina-5(1,3)-benzenacyclotetradecaphane-12-yl)acetamide], the IC50 was under 100 nM in test [1], 100 to 500 nM in test [2] and under 100 nM in the test with hPMBC.

Consider `CC(=O)c1ccc(CC(=O)N[C@H]2CC(=O)N3CCCC(CCOc4ccc(C)c(c4)CNC(=O)[C@H](CCc4ccccc4)NC2=O)C3)cc1` (stereo partly drawn) [Compound 341, 2-(4-acetylphenyl)-N-((9S,12S)-54-methyl-8,11,14-trioxo-9-phenethyl-4-oxa-7,10-diaza-1(3,1)-piperidina-5(1,3)-benzenacyclotetradecaphane-12-yl)acetamide], for which the IC50 (in test [1]; in test [2]; in the test with hPMBC) was under 100 nM each time.

For `CC(=O)N[C@H]1CC(=O)N2CCCC(CCOc3ccc(C)c(c3)CNC(=O)C(c3cnn(CCOCCOCCOCCN)c3)NC1=O)C2` (stereo partly drawn) [Compound 566, N-((12S)-9-(1-(2-(2-(2-(2-aminoethoxy)ethoxy)ethoxy)ethyl)-1H-pyrazol-4-yl)-5^4-methyl-8,11,14-trioxo-4-oxa-7,10-diaza-1(3,1)-piperidina-5(1,3)-benzenacyclotetradecaphane-12-yl)acetamide], the IC50 in test [1] is under 100 nM; in test [2], under 100 nM; in the test on hPMBC it was 100 to 500 nM.

Take `CC(=O)N[C@H]1CC(=O)N2CCCC(CCOc3ccc(C)c(c3)CNC(=O)C(c3cn(C)cn3)NC1=O)C2` (stereo partly drawn) [Compound 557, N-((12S)-5^4-methyl-9-(1-methyl-1H-imidazol-4-yl)-8,11,14-trioxo-4-oxa-7,10-diaza-1(3,1)-piperidina-5(1,3)-benzenacyclotetradecaphane-12-yl)acetamide]: the IC50 (in test [1]; in test [2]; with hPMBC) was under 100 nM in each case.

`Cc1ccc2cc1CNC(=O)[C@H](CCc1ccccc1)NC(=O)[C@@H](NC(=O)OCc1ccccc1)CCCCC(=O)N1CC(CCO2)C1` [Compound 353, benzyl ((9S,12S)-5^4-methyl-8,11,17-trioxo-9-phenethyl-4-oxa-7,10-diaza-1(3,1)-azetidina-5(1,3)-benzenacycloheptadecaphane-12-yl)carbamate]: the IC50 (in test [1]; in test [2]; in the test with hPMBC) was under 100 nM throughout.

Consider `Cc1ccc2cc1CNC(=O)[C@H](CCc1ccccc1)NC(=O)[C@@H](NC(=O)Cc1cc(Cl)c(N)c(Cl)c1)CC(=O)N1CCCC(CCO2)C1` (stereo partly drawn) [Compound 320, 2-(4-amino-3,5-dichlorophenyl)-N-((9S,12S)-5^4-methyl-8,11,14-trioxo-9-phenethyl-4-oxa-7,10-diaza-1(3,1)-piperidina-5(1,3)-benzenacyclotetradecaphane-12-yl)acetamide], for which the IC50 (in test [1]; in test [2]; with hPMBC) was under 100 nM in each case.

In the case of `CC(=O)N[C@H]1CC(=O)N2CCCC(CCOc3cccc(c3)CNC(=O)[C@H](CCc3ccccc3)NC1=O)C2` (stereo partly drawn) [Compound 364, N-((9S,12S)-8,11,14-trioxo-9-phenethyl-4-oxa-7,10-diaza-1(3,1)-piperidina-5(1,3)-benzenacyclotetradecaphane-12-yl)acetamide], the IC50 (in test [1]; in test [2]; with hPMBC) was under 100 nM each time.
